Measured values published in patent US10064873B2, “Compounds and compositions for treating HIV with derivatives of Betulin” (GlaxoSmithKline LLC, priority 2011, dated 2018).

Tested on: HIV NL4-3 wt
Assay: MT4 antiviral assay, NL4-3 strain wild type
Format: cell-based, HIV-1
Conditions: Human immunodeficiency virus 1, NL43, MT4, read-out: EC50 NL4-3 wt (nM)

Compared with `CC(C)C1=C2[C@H]3CC[C@@H]4[C@@]5(C)CC[C@H](OC(=O)CC(C)(C)C(=O)O)C(C)(C)[C@@H]5CC[C@@]4(C)[C@]3(C)CC[C@@]2([C@H](CN(CCN(C)C)Cc2ccc(Cl)cc2)OC(=O)CC(C)(C)C(=O)O)CC1=O` [Example 2, 4-((R)-1-((3aR,5aR,5bR,7aR,9S,11aR,11bR,13aS)-9-((3-Carboxy-3-methylbutanoyl)oxy)-1-isopropyl-5a,5b,8,8,11a-pentamethyl-2-oxo-3,3a,4,5,5a,5b,6,7,7a,8,9,10,11,11a,11b,12,13,13a-octadecahydro-2H-cyclopenta[a]chrysen-3a-yl)-2-((4-chlorobenzyl)(2-(dimethylamino)ethyl)amino)ethoxy)-2,2-dimethyl-4-oxobutanoic acid], `CC(C)C1=C2[C@H]3CC[C@@H]4[C@@]5(C)CC[C@H](OC(=O)CC(C)(C)C(=O)O)C(C)(C)[C@@H]5CC[C@@]4(C)[C@]3(C)CC[C@@]2([C@@H](CN(CCN(C)C)Cc2ccc(Cl)cc2)OC(=O)CC(C)(C)C(=O)O)CC1=O` [Example 4, 4-((S)-1-((3aR,5aR,5bR,7aR,9S,11aR,11bR,13aS)-9-((3-Carboxy-3-methylbutanoyl)oxy)-1-isopropyl-5a,5b,8,8,11a-pentamethyl-2-oxo-3,3a,4,5,5a,5b,6,7,7a,8,9,10,11,11a,11b,12,13,13a-octadecahydro-2H-cyclopenta[a]chrysen-3a-yl)-2-((4-chlorobenzyl)(2-(dimethylamino)ethyl)amino)ethoxy)-2,2-dimethyl-4-oxobutanoic acid] is 1.9-fold higher in EC50: 5.2 nM for the first, 10.1 nM for the second. The first is the more potent here.

First: CC(C)C1=C2[C@H]3CC[C@@H]4[C@@]5(C)CC[C@H](OC(=O)CC(C)(C)C(=O)O)C(C)(C)[C@@H]5CC[C@@]4(C)[C@]3(C)CC[C@@]2(CCNCc2ccccc2)CC1=O [Example 6, 4-(((3aR,5aR,5bR,7aR,9S,11aR,11bR,13aS)-3a-(2-(Benzylamino)ethyl)-1-isopropyl-5a,5b,8,8,11a-pentamethyl-2-oxo-3,3a,4,5,5a,5b,6,7,7a,8,9,10,11,11a,11b,12,13,13a-octadecahydro-2H-cyclopenta[a]chrysen-9-yl)oxy)-2,2-dimethyl-4-oxobutanoic acid]
Second: CC(C)C1=C2[C@H]3CC[C@@H]4[C@@]5(C)CC[C@H](OC(=O)CC(C)(C)C(=O)O)C(C)(C)[C@@H]5CC[C@@]4(C)[C@]3(C)CC[C@@]2(CCNCc2cccc(Cl)c2)CC1=O [Example 7, 4-(((3aR,5aR,5bR,7aR,9S,11aR,11bR,13aS)-3a-(2-((3-Chlorobenzyl)amino)ethyl)-1-isopropyl-5a,5b,8,8,11a-pentamethyl-2-oxo-3,3a,4,5,5a,5b,6,7,7a,8,9,10,11,11a,11b,12,13,13a-octadecahydro-2H-cyclopenta[a]chrysen-9-yl)oxy)-2,2-dimethyl-4-oxobutanoic acid]
The EC50 of the first is 12-fold lower: 0.5 nM for the first, 6.1 nM for the second.

In the case of `CC(C)C1=C2[C@H]3CC[C@@H]4[C@@]5(C)CC[C@H](OC(=O)CC(C)(C)C(=O)O)C(C)(C)[C@@H]5CC[C@@]4(C)[C@]3(C)CC[C@@]2(CCN(C)Cc2ccc(Cl)cc2)CC1=O` [Example 12, 4-(((3aR,5aR,5bR,7aR,9S,11aR,11bR,13aS)-3a-(2-((4-Chlorobenzyl)(methyl)amino)ethyl)-1-isopropyl-5a,5b,8,8,11a-pentamethyl-2-oxo-3,3a,4,5,5a,5b,6,7,7a,8,9,10,11,11a,11b,12,13,13a-octadecahydro-2H-cyclopenta[a]chrysen-9-yl)oxy)-2,2-dimethyl-4-oxobutanoic acid], the EC50 is reported as 4.5 nM.

Same assay, conditions: Human immunodeficiency virus 1, NL43; MT4 cells; read-out: EC50 NL4-3 wt

Compared with `CC(C)C1=C2[C@H]3CC[C@@H]4[C@@]5(C)CC[C@H](OC(=O)CC(C)(C)C(=O)O)C(C)(C)[C@@H]5CC[C@@]4(C)[C@]3(C)CC[C@@]2([C@@H](O)CN2CCN(C)CC2)CC1` (racemic) [Example 65, 4-(((3aS,5aR,5bR,7aR,9S,11aR,11bR,13aS)-3a-((R)-1-hydroxy-2-(4-methylpiperazin-1-yl)ethyl)-1-isopropyl-5a,5b,8,8,11a-pentamethyl-3,3a,4,5,5a,5b,6,7,7a,8,9,10,11,11a,11b,12,13,13a-octadecahydro-2H-cyclopenta[a]chrysen-9-yl)oxy)-2,2-dimethyl-4-oxobutanoic acid], `CC(C)C1=C2[C@H]3CC[C@@H]4[C@@]5(C)CC[C@H](OC(=O)CC(C)(C)C(=O)O)C(C)(C)[C@@H]5CC[C@@]4(C)[C@]3(C)CC[C@@]2([C@@H](O)CNCc2ccc(Cl)cc2)CC1=O` [Example 14, 4-(((3aR,5aR,5bR,7aR,9S,11aR,11bR,13aS)-3a-((R)-2-((4-Chlorobenzyl)amino)-1-hydroxyethyl)-1-isopropyl-5a,5b,8,8,11a-pentamethyl-2-oxo-3,3a,4,5,5a,5b,6,7,7a,8,9,10,11,11a,11b,12,13,13a-octadecahydro-2H-cyclopenta[a]chrysen-9-yl)oxy)-2,2-dimethyl-4-oxobutanoic acid] is 40-fold lower in EC50: 83.8 nM for the first, 2.1 nM for the second. The second is the more potent here.

Compared with `CC(=O)N(Cc1cccc(Cl)c1)C[C@H](O)[C@@]12CC[C@]3(C)[C@H](CC[C@@H]4[C@@]5(C)CC[C@H](OC(=O)CC(C)(C)C(=O)O)C(C)(C)[C@@H]5CC[C@]43C)C1=C(C(C)C)C(=O)C2` [Compound 46], `CC(=O)N(CC[C@@]12CC[C@]3(C)[C@H](CC[C@@H]4[C@@]5(C)CC[C@H](OC(=O)CC(C)(C)C(=O)O)C(C)(C)[C@@H]5CC[C@]43C)C1=C(C(C)C)C(=O)C2)Cc1ccc(Cl)cc1` [Example 13, 4-(((3aR,5aR,5bR,7aR,9S,11aR,11bR,13aS)-3a-(2-(N-(4-Chlorobenzyl)acetamido)ethyl)-1-isopropyl-5a,5b,8,8,11a-pentamethyl-2-oxo-3,3a,4,5,5a,5b,6,7,7a,8,9,10,11,11a,11b,12,13,13a-octadecahydro-2H-cyclopenta[a]chrysen-9-yl)oxy)-2,2-dimethyl-4-oxobutanoic acid] is 6.9-fold lower in EC50: 11.1 nM for the first, 1.6 nM for the second. The second is the more potent here.

Compared with `CC(C)C1=C2[C@H]3CC[C@@H]4[C@@]5(C)CC[C@H](OC(=O)CC(C)(C)C(=O)O)C(C)(C)[C@@H]5CC[C@@]4(C)[C@]3(C)CC[C@@]2([C@H](O)CN(CCN(C)C)Cc2ccccc2Cl)CC1=O` [Compound 51], `CC(C)C1=C2[C@H]3CC[C@@H]4[C@@]5(C)CC[C@H](OC(=O)CC(C)(C)C(=O)O)C(C)(C)[C@@H]5CC[C@@]4(C)[C@]3(C)CC[C@@]2(CCNCc2cccc(Cl)c2F)CC1=O` [Example 8, 4-(((3aR,5aR,5bR,7aR,9S,11aR,11bR,13aS)-3a-(2-((3-Chloro-2-fluorobenzyl)amino)ethyl)-1-isopropyl-5a,5b,8,8,11a-pentamethyl-2-oxo-3,3a,4,5,5a,5b,6,7,7a,8,9,10,11,11a,11b,12,13,13a-octadecahydro-2H-cyclopenta[a]chrysen-9-yl)oxy)-2,2-dimethyl-4-oxobutanoic acid] is 1.7-fold higher in EC50: 3.5 nM for the first, 5.9 nM for the second.

Going from `CC(C)C1=C2[C@H]3CC[C@@H]4[C@@]5(C)CC[C@H](OC(=O)CC(C)(C)C(=O)O)C(C)(C)[C@@H]5CC[C@@]4(C)[C@]3(C)CC[C@@]2([C@H](CNCc2ccc(Cl)cc2)OC(=O)CC(C)(C)C(=O)O)CC1=O` [Example 1, 4-((R)-1-((3aR,5aR,5bR,7aR,9S,11aR,11bR,13aS)-9-((3-carboxy-3-methylbutanoyl)oxy)-1-isopropyl-5a,5b,8,8,11a-pentamethyl-2-oxo-3,3a,4,5,5a,5b,6,7,7a,8,9,10,11,11a,11b,12,13,13a-octadecahydro-2H-cyclopenta[a]chrysen-3a-yl)-2-((4-chlorobenzyl)amino)ethoxy)-2,2-dimethyl-4-oxobutanoic acid] to `CC(C)C1=C2[C@H]3CC[C@@H]4[C@@]5(C)CC[C@H](OC(=O)CC(C)(C)C(=O)O)C(C)(C)[C@@H]5CC[C@@]4(C)[C@]3(C)CC[C@@]2([C@@H](CNCc2ccc(Cl)cc2)OC(=O)CC(C)(C)C(=O)O)CC1=O` [Example 3, 4-[(1S)-1-[(1R,2R,5R,10S,13R,14R, 17S,19R)-17-[(3-carboxy-3,3-dimethylpropanoyl)oxy]-1,2,14,18,18-pentamethyl-7-oxo-8-(propan-2-yl)pentacyclo[11.8.0.0^ {2,10}.0^{5,9}.0^{14,19}]henicos-8-en-5-yl]-2-{[(4-chlorophenyl)methyl]amino}ethoxy]-2,2-dimethyl-4-oxobutanoic acid], the EC50 rises from 41.1 nM to 61.7 nM (1.5-fold). The first is the more potent here.

First: CC(C)C1=C2[C@H]3CC[C@@H]4[C@@]5(C)CC[C@H](OC(=O)CC(C)(C)C(=O)O)C(C)(C)[C@@H]5CC[C@@]4(C)[C@]3(C)CC[C@@]2(CCNCc2ccc(Cl)cc2)CC1=O [Example 5, 4-(((3aR,5aR,5bR,7aR,9S,11aR,11bR,13aS)-3a-(2-((4-Chlorobenzyl)amino)ethyl)-1-isopropyl-5a,5b,8,8,11a-pentamethyl-2-oxo-3,3a,4,5,5a,5b,6,7,7a,8,9,10,11,11a,11b,12,13,13a-octadecahydro-2H-cyclopenta[a]chrysen-9-yl)oxy)-2,2-dimethyl-4-oxobutanoic acid]
Second: CC(C)C1=C2[C@H]3CC[C@@H]4[C@@]5(C)CC[C@H](OC(=O)CC(C)(C)C(=O)O)C(C)(C)[C@@H]5CC[C@@]4(C)[C@]3(C)CC[C@@]2(CCNC2(c3ccc(Cl)cc3)CC2)CC1=O [Example 9, 4-(((3aR,5aR,5bR,7aR,9S,11aR,11bR,13aS)-3a-(2-((1-(4-chlorophenyl)cyclopropyl)amino)ethyl)-1-isopropyl-5a,5b,8,8,11a-pentamethyl-2-oxo-3,3a,4,5,5a,5b,6,7,7a,8,9,10,11,11a,11b,12,13,13a-octadecahydro-2H-cyclopenta[a]chrysen-9-yl)oxy)-2,2-dimethyl-4-oxobutanoic acid]
The EC50 of the first is 4.7-fold lower: 2.6 nM for the first, 12.3 nM for the second. The first is the more potent here.

`CC(C)C1=C2[C@H]3CC[C@@H]4[C@@]5(C)CC[C@H](OC(=O)CC(C)(C)C(=O)O)C(C)(C)[C@@H]5CC[C@@]4(C)[C@]3(C)CC[C@@]2(CCN(CCN(C)C)C2(c3ccc(Cl)cc3)CC2)CC1=O` [Example 11, 4-(((3aR,5aR,5bR,7aR,9S,11aR,11bR,13aS)-3a-(2-((1-(4-Chlorophenyl)cyclopropyl)(2-(dimethylamino)ethyl)amino)ethyl)-1-isopropyl-5a,5b,8,8,11a-pentamethyl-2-oxo-3,3a,4,5,5a,5b,6,7,7a,8,9,10,11,11a,11b,12,13,13a-octadecahydro-2H-cyclopenta[a]chrysen-9-yl)oxy)-2,2-dimethyl-4-oxobutanoic acid] was tested, and the EC50 was 6.3 nM.
